# Test results reported in PubChem BioAssay AID1259407 (Chemical Carcinogenesis Research Information System (CCRIS), 2018).
# Calls of active or inactive are those of the source. How the calls were made is not given here.
# System: CCRIS mutagenicity, Ames/micronucleus/aberration tests
# Assay: CCRIS mutagenicity studies
# [1] = Test System: AMES SALMONELLA TYPHIMURIUM, Strain/Indicator: TA100, Metabolic Activation: NONE, Method: STANDARD PLATE
smiles,measurement,setting,value
CCCCNC(=O)c1cc(N)ccc1Oc1ccc(C)cc1,mutagenic call,"Test System: Ames Salmonella typhimurium, Strain/Indicator: TA98, Metabolic Activation: None, Method: Preincubation",inactive; negative. data for pa31 mentioned in abstract only.
same,mutagenic call,"Test System: Ames Salmonella typhimurium, Strain/Indicator: TA98, Metabolic Activation: Rat, Liver, S-9, Phenobarbital and beta-naphthoflavone, Method: Preincubation",active; positive
same,mutagenic call,"Test System: Ames Salmonella typhimurium, Strain/Indicator: TA100, Metabolic Activation: None, Method: Preincubation",inactive; negative. data for pa31 mentioned in abstract only.
same,mutagenic call,"Test System: Ames Salmonella typhimurium, Strain/Indicator: TA100, Metabolic Activation: Rat, Liver, S-9, Phenobarbital and beta-naphthoflavone, Method: Preincubation",active; positive
same,mutagenic call,"Test System: Ames Salmonella typhimurium, Strain/Indicator: TA102, Metabolic Activation: None, Method: Preincubation",inactive; negative. data for pa31 mentioned in abstract only.
same,mutagenic call,"Test System: Ames Salmonella typhimurium, Strain/Indicator: TA1535, Metabolic Activation: None, Method: Preincubation",inactive; negative. data for pa31 mentioned in abstract only.
same,mutagenic call,"Test System: Ames Salmonella typhimurium, Strain/Indicator: TA1537, Metabolic Activation: None, Method: Preincubation",inactive; negative. data for pa31 mentioned in abstract only.
OC1CC=Cc2cccnc21 (centres undefined),mutagenic call,[1],inactive; negative
same,mutagenic call,"Test System: AMES SALMONELLA TYPHIMURIUM, Strain/Indicator: TA100, Metabolic Activation: RAT, LIVER, S-9, AROCLOR 1254 (10 OR 20%), Method: STANDARD PLATE",inactive; negative
Nc1ccc2c([nH]c3ccccc32)c1[N+](=O)[O-],mutagenic call,"Test System: AMES SALMONELLA TYPHIMURIUM, Strain/Indicator: TA98, Metabolic Activation: NONE, Method: STANDARD PLATE",active; positive
same,mutagenic call,"Test System: AMES SALMONELLA TYPHIMURIUM, Strain/Indicator: TA98, Metabolic Activation: RAT, LIVER, S-9, PHENOBARBITAL, Method: STANDARD PLATE",active; positive
same,mutagenic call,[1],active; positive
same,mutagenic call,"Test System: AMES SALMONELLA TYPHIMURIUM, Strain/Indicator: TA100, Metabolic Activation: RAT, LIVER, S-9, PHENOBARBITAL, Method: STANDARD PLATE",active; positive
same,mutagenic call,"Test System: AMES SALMONELLA TYPHIMURIUM, Strain/Indicator: TA1537, Metabolic Activation: NONE, Method: STANDARD PLATE",active; positive
same,mutagenic call,"Test System: AMES SALMONELLA TYPHIMURIUM, Strain/Indicator: TA1537, Metabolic Activation: RAT, LIVER, S-9, PHENOBARBITAL, Method: STANDARD PLATE",active; positive
same,mutagenic call,"Test System: AMES SALMONELLA TYPHIMURIUM, Strain/Indicator: TA1538, Metabolic Activation: NONE, Method: STANDARD PLATE",active; positive
same,mutagenic call,"Test System: AMES SALMONELLA TYPHIMURIUM, Strain/Indicator: TA1538, Metabolic Activation: RAT, LIVER, S-9, PHENOBARBITAL, Method: STANDARD PLATE",active; positive
same,mutagenic call,"Test System: AMES SALMONELLA TYPHIMURIUM, Strain/Indicator: TA1977, Metabolic Activation: NONE, Method: STANDARD PLATE",inactive; negative
same,mutagenic call,"Test System: AMES SALMONELLA TYPHIMURIUM, Strain/Indicator: TA1977, Metabolic Activation: RAT, LIVER, S-9, PHENOBARBITAL, Method: STANDARD PLATE",active; positive
NS(=O)(=O)c1cc2c(cc1Cl)NCNS2(=O)=O,mutagenic call,"End Point: IN VITRO CHROMOSOMAL ABERRATIONS, Test System: CHINESE HAMSTER OVARY CELLS, Metabolic Activation: NONE",inactive; negative
same,mutagenic call,"End Point: IN VITRO CHROMOSOMAL ABERRATIONS, Test System: CHINESE HAMSTER OVARY CELLS, Metabolic Activation: RAT, LIVER, S-9, AROCLOR 1254",inactive; negative
same,mutagenic call,"End Point: IN VITRO CHROMOSOMAL ABERRATIONS, Test System: CHO CELLS, Metabolic Activation: NONE",inactive; negative
same,mutagenic call,"End Point: IN VITRO CHROMOSOMAL ABERRATIONS, Test System: CHO CELLS, Metabolic Activation: RAT, LIVER, S-9, AROCLOR 1254",inactive; negative
same,mutagenic call,"Test System: AMES SALMONELLA TYPHIMURIUM, Strain/Indicator: TA98, Metabolic Activation: HAMSTER, LIVER, S-9, AROCLOR 1254, Method: PREINCUBATION",inactive; negative
same,mutagenic call,"Test System: AMES SALMONELLA TYPHIMURIUM, Strain/Indicator: TA98, Metabolic Activation: RAT, LIVER, S-9, AROCLOR 1254, Method: PREINCUBATION",inactive; negative
same,mutagenic call,"Test System: AMES SALMONELLA TYPHIMURIUM, Strain/Indicator: TA100, Metabolic Activation: HAMSTER, LIVER, S-9, AROCLOR 1254, Method: PREINCUBATION",inactive; negative
same,mutagenic call,"Test System: AMES SALMONELLA TYPHIMURIUM, Strain/Indicator: TA100, Metabolic Activation: NONE, Method: PREINCUBATION",inactive; negative
same,mutagenic call,"Test System: AMES SALMONELLA TYPHIMURIUM, Strain/Indicator: TA100, Metabolic Activation: RAT, LIVER, S-9, AROCLOR 1254, Method: PREINCUBATION",inactive; negative
same,mutagenic call,"Test System: AMES SALMONELLA TYPHIMURIUM, Strain/Indicator: TA1535, Metabolic Activation: HAMSTER, LIVER, S-9, AROCLOR 1254, Method: PREINCUBATION",inactive; negative
same,mutagenic call,"Test System: AMES SALMONELLA TYPHIMURIUM, Strain/Indicator: TA1535, Metabolic Activation: NONE, Method: PREINCUBATION",inactive; negative
same,mutagenic call,"Test System: AMES SALMONELLA TYPHIMURIUM, Strain/Indicator: TA1535, Metabolic Activation: RAT, LIVER, S-9, AROCLOR 1254, Method: PREINCUBATION",inactive; negative
same,mutagenic call,"Test System: AMES SALMONELLA TYPHIMURIUM, Strain/Indicator: TA1537, Metabolic Activation: HAMSTER, LIVER, S-9, AROCLOR 1254, Method: PREINCUBATION",inactive; negative
same,mutagenic call,"Test System: AMES SALMONELLA TYPHIMURIUM, Strain/Indicator: TA1537, Metabolic Activation: RAT, LIVER, S-9, AROCLOR 1254, Method: PREINCUBATION",inactive; negative
same,mutagenic call,"Test System: MOUSE LYMPHOMA, Strain/Indicator: L5178Y (TK+/TK-), Metabolic Activation: NONE, Method: SUSPENSION/PLATE",active; positive
